Consider 47 molecules from ChEMBL document CHEMBL1149138 (J Med Chem, 2004).

Assay [1] has as its target Neuraminidase (Influenza B virus (strain B/Lee/1940), UniProt P03474). On the set-up: species or system Influenza B virus (strain: B/Lee/40).
Assay [2] concerns the target Neuraminidase (Influenza A virus (A/Puerto Rico/8/1934(H1N1)), UniProt P03468).
Assay [3] deals with Mus musculus. As to the kind of experiment: Maximum weight lose in influenza A infected mice when treated by the compound at a dose of 10 mg/kg/day b.i.d. It counts as functional.
The subject of assay [4] is Mus musculus. As to the kind of experiment: Maximum weight lose in influenza A infected mice when treated by the compound at a dose of 0 mg/kg/day b.i.d. It counts as functional.
The subject of assay [5] is Mus musculus. Put plainly: Maximum weight lose in influenza A infected mice when treated by the compound at a dose of 0.1 mg/kg/day b.i.d. The format is functional.
In assay [6] the test system is Mus musculus. Put plainly: Maximum weight lose in influenza A infected mice when treated by the compound at a dose of 1 mg/kg/day b.i.d. The format is functional.

For orientation: IC50 means the point on the concentration scale where inhibition reaches its midpoint. Low readings indicate greater potency, high ones weaker potency.

Sequence of Neuraminidase (Influenza A virus (A/Puerto Rico/8/1934(H1N1)), UniProt P03468) (P03468 whole entry): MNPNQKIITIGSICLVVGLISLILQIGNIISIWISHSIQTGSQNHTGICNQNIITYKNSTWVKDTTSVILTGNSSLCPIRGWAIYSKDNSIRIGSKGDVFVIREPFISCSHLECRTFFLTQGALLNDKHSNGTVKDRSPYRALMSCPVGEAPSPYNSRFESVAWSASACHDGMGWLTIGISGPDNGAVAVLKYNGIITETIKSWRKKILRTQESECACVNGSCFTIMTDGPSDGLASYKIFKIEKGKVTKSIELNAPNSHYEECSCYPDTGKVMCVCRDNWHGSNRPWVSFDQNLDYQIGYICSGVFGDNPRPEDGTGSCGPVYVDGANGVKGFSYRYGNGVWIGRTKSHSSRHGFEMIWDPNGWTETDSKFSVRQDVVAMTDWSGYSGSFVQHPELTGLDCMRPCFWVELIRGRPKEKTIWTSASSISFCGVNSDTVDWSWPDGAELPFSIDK
Sequence of Neuraminidase (P03474 whole entry): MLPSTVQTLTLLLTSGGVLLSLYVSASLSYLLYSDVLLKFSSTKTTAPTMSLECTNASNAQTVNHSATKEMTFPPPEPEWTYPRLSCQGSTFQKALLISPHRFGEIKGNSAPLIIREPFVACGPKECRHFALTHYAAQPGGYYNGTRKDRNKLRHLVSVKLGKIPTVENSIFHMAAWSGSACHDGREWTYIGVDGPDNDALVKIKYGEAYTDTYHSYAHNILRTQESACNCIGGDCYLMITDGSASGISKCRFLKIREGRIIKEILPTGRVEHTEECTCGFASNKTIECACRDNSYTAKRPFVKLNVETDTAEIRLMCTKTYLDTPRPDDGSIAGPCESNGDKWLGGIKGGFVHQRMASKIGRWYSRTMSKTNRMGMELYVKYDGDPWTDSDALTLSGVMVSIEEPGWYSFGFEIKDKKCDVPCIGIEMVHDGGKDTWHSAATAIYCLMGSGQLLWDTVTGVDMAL

In the case of `CCC(C)NC(=O)C(NC(C)=O)[C@H]1CC(C(=O)O)C[C@@H]1N=C(N)N` (stereo partly specified), the IC50 in assay [1] is 16.5 µM.
Same read-out and setting: for `CCCN(CC)C(=O)C(NC(C)=O)[C@H]1CC(C(=O)O)C[C@@H]1N=C(N)N` (stereo partly specified) the value was 7 µM.
The molecule `COCC(C)NC(=O)C(NC(C)=O)[C@H]1CC(C(=O)O)C[C@@H]1N=C(N)N` (stereo partly specified) came in with an IC50 in assay [1] of 25.1 µM.
On the same count and under the same terms, for `CC(=O)NC(C(=O)N1CCCCCC1)[C@H]1CC(C(=O)O)C[C@@H]1N=C(N)N` (stereo partly specified) the value was 25.3 µM.
On the same count and under the same terms, as for `CCCN(CCC)C(=O)C(NC(C)=O)[C@H]1CC(C(=O)O)C[C@@H]1N=C(N)N` (stereo partly specified), the figure is 9.2 µM.
For `CCN(CC)C(=O)C(NC(C)=O)[C@H]1C[C@@H](C(=O)O)C[C@@H]1N=C(N)N` (stereo partly specified), the figures for the IC50 in assay [2] and in assay [1] were 0.007 µM and 1.5 µM, respectively.
For `CC(=O)NC(C(=O)NC(C)C)[C@H]1CC(C(=O)O)C[C@@H]1N=C(N)N` (stereo partly specified), half-maximal inhibition in assay [1] (IC50) required 4.6 µM. In other words, the single-digit micromolar range.
The same measure, in the same setting: as for `CCCCCCN(C)C(=O)C(NC(C)=O)[C@H]1CC(C(=O)O)C[C@@H]1N=C(N)N` (stereo partly specified), the figure is more than 30 µM.
As for `CCCN(CCC)C(=O)C(NC(C)=O)[C@H]1C[C@](O)(C(=O)O)C[C@@H]1N=C(N)N` (stereo in doubt), the IC50 was determined as 4.9 µM in assay [2] and 33 µM in assay [1].
`CC(=O)NC(C(=O)O)[C@@H]1CCC(=C2SCCCS2)C1` (mixture of isomers; form 2): the IC50 in assay [2] came to 0.06 µM; in assay [1], 3 µM.
Turning to `CCCN(CCC)C(=O)C(NC(C)=O)[C@H]1C[C@](O)(C(=O)O)C[C@@H]1N=C(N)N` (mixture of isomers), it took 2300 µM to reach half-maximal inhibition in assay [2] (IC50). That is a millimolar value.
For the molecule `CC(=O)NC(C(=O)NCCc1ccccc1)[C@H]1CC(C(=O)O)C[C@@H]1N=C(N)N` (stereo partly specified), in assay [1], the IC50 was 70.5 µM.
The same measure, in the same setting: for `CC(=O)NC(C(=O)N1CCCC1)[C@H]1CC(C(=O)O)C[C@@H]1N=C(N)N` (stereo partly specified) the value was 24 µM.
With `CC(=O)NC(C(=O)O)[C@@H]1CCC(=C2SCCCS2)C1` (mixture of isomers; form 1), the Max weight loss in assay [3] is given as 3.1%; in assay [4] it was 27.5%; in assay [5], 12.7%; in assay [6], 8.7%. The figures for the IC50 in assay [2] and in assay [1] were 0.007 µM and 3 µM, respectively.
In assay [1], `CCCN(CC1CC1)C(=O)C(NC(C)=O)[C@H]1CC(C(=O)O)C[C@@H]1N=C(N)N` (stereo partly specified) returned a concentration for half-maximal inhibition (IC50) of 24 µM.
On the same count and under the same terms, as for `CC(=O)NC(C(=O)N1CCSCC1)[C@H]1CC(C(=O)O)C[C@@H]1N=C(N)N` (stereo partly specified), the figure is 29.1 µM; as for `CC(=O)NC(C(=O)N1CCCCC1)[C@H]1CC(C(=O)O)C[C@@H]1N=C(N)N` (stereo partly specified), 6.9 µM.
The same measure, in the same setting: as for `CCC(COC)NC(=O)C(NC(C)=O)[C@H]1CC(C(=O)O)C[C@@H]1N=C(N)N` (stereo partly specified), the figure is 20 µM; as for `CCNC(=O)C(NC(C)=O)[C@H]1CC(C(=O)O)C[C@@H]1N=C(N)N` (stereo partly specified), 3.1 µM.
The same measure, in the same setting: as for `CC(=O)NC(C(=O)NC(C)CC(C)C)[C@H]1CC(C(=O)O)C[C@@H]1N=C(N)N` (stereo partly specified), the figure is 11.4 µM; as for `CCCN(C)C(=O)C(NC(C)=O)[C@H]1CC(C(=O)O)C[C@@H]1N=C(N)N` (stereo partly specified), 6.2 µM; as for `CCC1CCCCN1C(=O)C(NC(C)=O)[C@H]1CC(C(=O)O)C[C@@H]1N=C(N)N` (stereo partly specified), 3.1 µM.
`CCN(CC)C(=O)C(NC(C)=O)[C@H]1CC(C(=O)O)C[C@@H]1N=C(N)N` (stereo partly specified) yielded an IC50 in assay [1] of 3 µM.
For the molecule `C=CCNC(=O)C(NC(C)=O)[C@H]1CC(C(=O)O)C[C@@H]1N=C(N)N` (stereo partly specified), the IC50 in assay [1] was determined as 4.3 µM. This IC50 and that of the molecule before are within 1.5-fold of each other.
The same measure, in the same setting: for `CC(=O)NC(C(=O)N1CCCCC1C)[C@H]1CC(C(=O)O)C[C@@H]1N=C(N)N` (stereo partly specified) the value was 10.5 µM.
Turning to `CCN(CC)C(=O)C(NC(C)=O)[C@H]1C[C@@](O)(C(=O)O)C[C@@H]1N=C(N)N` (stereo partly specified), in assay [2], the IC50 amounted to 1.6 µM. That is a single-digit micromolar value.
As for `CC(=O)NC(C(=O)N1CC(C)CC(C)C1)[C@H]1CC(C(=O)O)C[C@@H]1N=C(N)N` (stereo partly specified), the IC50 in assay [1] was more than 100 µM.
With `CC(=O)NC(C(=O)N1CCC1)[C@H]1CC(C(=O)O)C[C@@H]1N=C(N)N` (stereo partly specified), in assay [1], half-maximal inhibition (IC50) required 8.4 µM.
In assay [1], `CC(=O)NC(C(=O)N(C)C(C)C)[C@H]1CC(C(=O)O)C[C@@H]1N=C(N)N` (stereo partly specified) had an IC50 of 6.8 µM.
Consider `CCCCC(CC)NC(=O)C(NC(C)=O)[C@H]1CC(C(=O)O)C[C@@H]1N=C(N)N` (stereo partly specified), for which, in assay [1], the IC50 turned out to be 16 µM.
On the same count and under the same terms, for `CC(=O)NC(C(=O)NC(C)CCc1ccccc1)[C@H]1CC(C(=O)O)C[C@@H]1N=C(N)N` (stereo partly specified) the value was 12.5 µM.
Molecule `CCCCC(C)NC(=O)C(NC(C)=O)[C@H]1CC(C(=O)O)C[C@@H]1N=C(N)N` (stereo partly specified) had an IC50 in assay [1] of 37 µM.
The same measure, in the same setting: for `CC(=O)NC(C(=O)N(C)CCc1ccccc1)[C@H]1CC(C(=O)O)C[C@@H]1N=C(N)N` (stereo partly specified) the value was 26.7 µM; for `C=CCN(C)C(=O)C(NC(C)=O)[C@H]1CC(C(=O)O)C[C@@H]1N=C(N)N` (stereo partly specified), 11.7 µM.
On the same count and under the same terms, for `CCCCN(C)C(=O)C(NC(C)=O)[C@H]1CC(C(=O)O)C[C@@H]1N=C(N)N` (stereo partly specified) the value was 18.4 µM; for `CCN(CCO)C(=O)C(NC(C)=O)[C@H]1CC(C(=O)O)C[C@@H]1N=C(N)N` (stereo partly specified), more than 30 µM; for `CCCCNC(=O)C(NC(C)=O)[C@H]1CC(C(=O)O)C[C@@H]1N=C(N)N` (stereo partly specified), 46.8 µM.
The same measure, in the same setting: as for `CCN(Cc1ccccc1)C(=O)C(NC(C)=O)[C@H]1CC(C(=O)O)C[C@@H]1N=C(N)N` (stereo partly specified), the figure is more than 30 µM.
As for `CC(=O)NC(C(=O)O)[C@@H]1CCC(=C2SCCCS2)C1` (single isomer, unassigned), the IC50 in assay [2] was determined as 0.043 µM; in assay [1] it was 8.6 µM.
With `CC(=O)NC(C(=O)N1CCOCC1)[C@H]1CC(C(=O)O)C[C@@H]1N=C(N)N` (stereo partly specified), the IC50 in assay [1] stood at 7.8 µM.
In assay [2], `CCCN(CCC)C(=O)C(NC(C)=O)[C@H]1C[C@@](O)(C(=O)O)C[C@@H]1N=C(N)N` (stereo partly specified) had a 50% inhibitory concentration (IC50) of 0.47 µM. In other words, the sub-micromolar range.
`CC(=O)NC(C(=O)N1CCC(C)CC1)[C@H]1CC(C(=O)O)C[C@@H]1N=C(N)N` (stereo partly specified) showed an IC50 in assay [1] of 42.5 µM.
Regarding `CC(=O)NC(C(=O)O)[C@@H]1CCC(=C2SCCCS2)C1` (stereo in doubt), in assay [2], the IC50 is 25 µM.
In assay [1], `CCCC(C)NC(=O)C(NC(C)=O)[C@H]1CC(C(=O)O)C[C@@H]1N=C(N)N` (stereo partly specified) registered an IC50 of 12.2 µM.
Same read-out and setting: for `CCC(CC)NC(=O)C(NC(C)=O)[C@H]1CC(C(=O)O)C[C@@H]1N=C(N)N` (stereo partly specified) the value was 3 µM; for `CC(=O)NC(C(=O)N1CCCC(C)C1)[C@H]1CC(C(=O)O)C[C@@H]1N=C(N)N` (stereo partly specified), more than 10 µM.
The same measure, in the same setting: as for `CCCC1CCCCN1C(=O)C(NC(C)=O)[C@H]1CC(C(=O)O)C[C@@H]1N=C(N)N` (stereo partly specified), the figure is 14.5 µM.
